Test: Dynamic vapor sorption (DVS) moisture sorption isotherm
Format: physicochemical
Conditions: reversible; from 0 to 90% RH; 25° C.
Method: The crystalline Form I provided can be additionally characterized by dynamic vapor sorption (DVS), wherein a sample is subjected to varying conditions of humidity and temperature, and the response of the sample is measured gravimetrically. The result of a DVS analysis particularly can be a dual curve providing sample weight percent as a function of relative humidity (RH) over time, a dual curve providing sample water content as a function of RH over time, a curve providing weight percent in relation to RH, or a curve providing water content in relation to RH. Equipment useful for measuring such data is known in the art, and any such equipment can be used to measure the compounds according to the present disclosure. In certain embodiments, DVS analysis can be carried out by scanning at a series of specific RH values. […]
Sorption isotherms were obtained using a SMS DVS Intrinsic moisture sorption analyser, controlled by DVS Intrinsic Control software v1.0.1.2 (or v 1.0.1.3). […] The relative humidity (RH) was measured by a calibrated Rotronic probe (dynamic range of 1.0-100% RH), located near the sample. The weight change, (mass relaxation) of the sample as a function of % RH was constantly monitored by the microbalance (accuracy±0.005 mg). […]
The sample was recovered after completion of the isotherm and re-analyzed by XRPD.

NC(=O)/C(=C/n1cnc(-c2cc(C(F)(F)F)cc(C(F)(F)F)c2)n1)c1cncnc1 [Crystalline Form I, (E)-3-(3-(3,5-bis(trifluoromethyl)phenyl)-1H-1,2,4-triazol-1-yl)-2-(pyrimidin-5-yl)acrylamide]
water adsorption (dynamic vapor sorption): 0.12 % w/w
